Molecular target: T1, VDR-LBD (Homo sapiens, UniProt P11473)
T1 construct: VDR-LBD protein stock solution was prepared in 20 mM HEPES buffer
T1 sequence (P11473 127-423 limits assumed): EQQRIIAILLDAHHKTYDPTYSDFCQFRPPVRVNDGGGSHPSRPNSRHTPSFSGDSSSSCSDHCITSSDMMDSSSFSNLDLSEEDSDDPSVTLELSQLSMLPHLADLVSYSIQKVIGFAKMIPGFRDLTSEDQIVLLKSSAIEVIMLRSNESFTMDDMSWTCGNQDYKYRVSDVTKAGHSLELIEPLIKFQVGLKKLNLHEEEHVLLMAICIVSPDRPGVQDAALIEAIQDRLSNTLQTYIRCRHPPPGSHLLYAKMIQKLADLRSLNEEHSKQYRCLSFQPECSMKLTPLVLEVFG
Assay: HDX-MS of VDR-LBD with ligand in the dark and under 365 nm light
Format: binding
Description: Although previously used to study the effect of a cyclic azopeptide in its activated cis state, here we studied the target dynamics upon direct application of the light to the sample. To this aim, HDX-MS was applied for the characterization of the binding mode and modulation of receptor dynamics of the racemic compound PhotoVDRM. VDR-LBD was incubated alone (to provide an apo control for each experiment) or with an excess of compound PhotoVDRM and exposed to deuterium labeling for various periods of time, from 10 s to 2 h, in the dark and illuminated with light at 365 nm. […] As an additional control experiment, we also evaluated the HDX-MS of VDR-LBD in the presence and absence of a standard agonist, compound LSN2148936, in the dark and under illumination conditions. […] In order to permit direct comparison, including mathematical manipulation of the data in all these experiments, the observed deuterium incorporation percentages were converted to rate constants (expressed as −log10(k)) using our previously published Bayesian approach.
(Perkin Elmer, now Revvity, Cat.No. 6006290) in duplicate. Immediately, 54 µL of the protein solution were added and the plate was covered and incubated for 30 min at room temperature in the dark. Meanwhile, the plate with the 10X dilutions was illuminated at 365 nm for 3 min in a 96-well DED array plate (LEDA Teleopto), to allow the photoconversion of the molecules to their cis configuration. The illuminated compounds were mixed with the protein solution and incubated as described above for the plate in the dark. After the incubation time, the counts of both, the dark and illuminated plates, were measured in a Tecan Spark 20M Multimode plate reader with defined settings (excitation: 680 nm, emission: 520-620 nm, excitation time: 100ms, integration time: 300 ms). Biotinylated-His6 peptide (PerkinElmer) was used as a quality control reagent for AlphaScreen® assays and to evaluate compound interaction with the method. […] Dose-response curves and EC50 values were calculated with Graphpad software. […]

## Cc1cc(OCC(O)C(C)(C)C)ccc1N=Nc1cccc(-c2ccc(C(=O)O)cc2)c1 (centres unmarked) [Compound 11b]
In the dark, vs under light
  protection to H/D exchange: much lower
Under 365 nm light, vs reference agonist LSN2148936
  protection to H/D exchange: comparable

Reference: PMC12746157, “Light-Regulated Agonists Spatiotemporally Activating the Vitamin D Receptor Mitigate Psoriasis-like Inflammation in Mice without Inducing Hypercalcemia” (ACS Central Science, 2025)
